This is an account of results in patent US10577361B2, “Dopamine D3 receptor antagonists having a morpholine moiety” (Indivior UK Limited, priority 2015, dated 2020).

The target in experiment [1] is T1, human dopamine receptor type 2, long variant (hD2L) (Homo sapiens (Human), UniProt P14416). Nature of the experiment: Functional calcium assay at hD2 recombinant receptor (CHO-Gα16-hD2L cells, FLIPR). In kind it is cell-based. To be noted: functional pKi at hD2, dopamine EC80 challenge; for Ki: read-out: D2 fp Ki (converted). The protocol: Functional Calcium Assay at hD2 Recombinant Receptor CHO cells stably expressing human dopamine receptor type 2, long variant (hD2L), coupled to Gα16 protein (CHO-Gα16-hD2L) were seeded into black walled clear-base 384-well plates at a density of 8,000 cells per well and grown overnight at 37° C. […] Compounds of invention were dissolved in DMSO and 200-fold diluted with assay buffer plus 0.01% Pluronic F-127. […] The fluorescence before compound addition (baseline) and before and after addition of agonist challenge was monitored.

Experiment [2] concerns the target human dopamine type 3 receptor (hD3) (Homo sapiens (Human), UniProt P35462). The experiment can be described thus: [3H]-Spiperone binding assay at hD3 recombinant receptor (CHO-hD3 membranes). To be noted: pKi only estimated to be accurate to about ±0.3-0.5. The protocol:
[^3H]-Spiperone Binding Assay at hD3 and hD4 recombinant receptors CHO cells transiently transfected with human dopamine type 3 or 4 receptors (CHO-hD3 or CHO-hD4, respectively), were re-suspended in 20 mM HEPES, 2 mM EDTA (pH 7.4), homogenised and centrifuged at 40,000 g (20 min, 4° C.). After re-suspension, homogenization and centrifugation as above, the final pellet was re-suspended in 20 mM HEPES, 100 mM NaCl, 10 mM MgCl2, 1 mM EDTA (pH 7.4) and aliquots were kept at −80° C. [^3H]-Spiperone Binding experiments were performed in 96 deep-well polypropylene plates in 50 mM Tris/HCl, 120 mM NaCl, 5 mM KCl, 5 mM MgCl2 (pH 7.4). Compounds of invention were serially diluted in DMSO at 100 fold final concentrations in the assay (1% DMSO final in the assay). Displacement was performed in the presence of 0.3 nM [^3H]-Spiperone. The reaction was initiated by the addition of membrane suspension (4 μg and 12 μg of protein for CHO-hD3- and CHO-hD4 membranes, respectively) and lasted for 90 or 100 min (for hD3 or hD4 membranes, respectively) at 23° C. in a final volume of 500 μl. Non specific binding (NSB) was determined in the presence of 1 μM Spiperone. The binding reaction was stopped by rapid filtration through GF/B filterplates pre-soaked in 0.5% polyetylenimmine (PEI) using a Packard cell harvester. After washing with ice-cold 0.9% NaCl, the plate was left to dry before the addition of Microscint 20 ([…], PerkinElmer). Radioactivity was counted with a TopCount (PerkinElmer). Data were analysed by non-linear regression analysis using GraphPad Prism 5.0 (GraphPad Software). Saturation binding experiments were performed similar to the competition binding experiments using a radioligand concentrations ranging from 0.015 to 4.0 nM. […] Characterization of the human dopamine D3 receptor expressed in transfected cell lines.

Experiment [3] concerns the target T1, human dopamine receptor type 2, long variant (hD2L). The experiment can be described thus: [3H]-Spiperone binding assay at hD2 recombinant receptor (CHO-Gα16-hD2L membranes). The protocol: [^3H]-Spiperone Binding Assay at hD2 Recombinant Receptor CHO cells stably expressing human dopamine receptor type 2, long variant (hD2L), coupled to Gα16 protein (CHO-Gα16-hD2L) were re-suspended in 20 mM HEPES, 2 mM EDTA (pH 7.4), homogenised and centrifuged at 40,000 g (20 min, 4° C.). After re-suspension, homogenization and centrifugation as above, the final pellet was re-suspended in 20 mM HEPES, 100 mM NaCl, 10 mM MgCl2, 1 mM EDTA (pH 7.4) and aliquots were kept at −80° C. [^3H]-Spiperone Binding experiments were performed in 96 deep-well polypropylene plates in 50 mM Tris/HCl, 120 mM NaCl, 5 mM KCl, 5 mM MgCl2 (pH 7.4). […] Displacement was performed in the presence of 0.08 nM [^3H]-Spiperone. The reaction was initiated by the addition of membrane suspension (2 μg of protein for CHO-hD2 membranes) and lasted for 120 min at 23° C. in a final volume of 1000 μl. Non specific binding (NSB) was determined in the presence of 0.1 μM Spiperone. The binding reaction was stopped by rapid filtration through GF/B filterplates pre-soaked in 0.5% polyetylenimmine (PEI) using a Packard cell harvester. After washing with ice-cold 0.9% NaCl, the plate was left to dry before the addition of Microscint 20 (50 μl/well, PerkinElmer). Radioactivity was counted with a TopCount (PerkinElmer). […] Saturation binding experiments were performed similar to the competition binding experiments using a radioligand concentrations ranging from 0.011 to 3.0 nM. […] Is Clozapine selective for the dopamine D4 receptor? […] Real-time analysis of dopamine: antagonist interactions at recombinant human D2long receptor upon modulation of its activation state. Brit. J.

Counter-ions that a name gives are not always drawn.

Sequence of human dopamine type 3 receptor (hD3) (P35462 whole entry): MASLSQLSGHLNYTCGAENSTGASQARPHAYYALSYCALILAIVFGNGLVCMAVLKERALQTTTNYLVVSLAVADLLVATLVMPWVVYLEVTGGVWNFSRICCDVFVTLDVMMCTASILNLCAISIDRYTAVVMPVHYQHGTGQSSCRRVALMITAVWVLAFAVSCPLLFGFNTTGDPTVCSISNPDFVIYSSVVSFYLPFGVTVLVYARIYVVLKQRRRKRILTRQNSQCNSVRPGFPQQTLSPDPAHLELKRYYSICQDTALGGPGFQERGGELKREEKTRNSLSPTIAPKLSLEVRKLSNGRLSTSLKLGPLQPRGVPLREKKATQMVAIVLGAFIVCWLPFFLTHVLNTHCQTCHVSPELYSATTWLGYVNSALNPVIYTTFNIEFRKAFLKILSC

For the compound `Cc1ncoc1-c1nnc(SCCCN2CCOC(c3ccc(F)cc3)C2)n1C` (single isomer, unassigned) [Example 3, (2R or 2S)-2-(4-fluorophenyl)-4-(3-({[4-methyl-5-(4-methyl-1,3-oxazol-5-yl)-4H-1,2,4-triazol-3-yl]sulfanyl}propyl)morpholine], the “D2 fp Ki” value in experiment [1] was <5. The “D3 p Ki” value in experiment [2] is listed as 6.56.
Take `Cc1ncoc1-c1nnc(SCCCCN2CCO[C@H](c3ccc(C(F)(F)F)cc3)C2)n1C` (single isomer, unassigned) [Example 6, (2R or 2S)-4-(4-{[4-methyl-5-(4-methyl-1,3-oxazol-5-yl)-4H-1,2,4-triazol-3-yl]sulfanyl}butyl)-2-[4-(trifluoromethyl)phenyl]morpholine]: the “D2 fp Ki” value in experiment [1] is <5. In experiment [2], the “D3 p Ki” value was 7.11.
On to `Cc1ncoc1-c1nnc(SCCCN2CCO[C@H](c3ccc(C(F)(F)F)cc3)C2)n1C` (single isomer, unassigned) [Example 9, (2R or 2S)-4-(3-{[4-methyl-5-(4-methyl-1,3-oxazol-5-yl)-4H-1,2,4-triazol-3-yl]sulfanyl)}propyl)-2-[4-(trifluoromethyl)phenyl]morpholine], for which, in experiment [3], the “D2 p Ki” value was 5.36. Also, the “D2 fp Ki” value in experiment [1] is on record as 5.64.
Usually Ki stands for a measure of affinity in units of concentration, obtained from inhibition or displacement. As for `Cc1ncoc1-c1nnc(SCCCN2CCO[C@H](c3ccc(C(F)(F)F)cc3)C2)n1C` (single isomer, unassigned) [Example 10, (2R or 2S)-4-(3-({[4-methyl-5-(4-methyl-1,3-oxazol-5-yl)-4H-1,2,4-triazol-3-yl]sulfanyl}propyl)-2-[4-(trifluoromethyl)phenyl]morpholine hydrochloride], the values for the Ki in experiment [3] (read-out: D2 p Ki (converted)) and in experiment [1] were 11.7 µM and > 10 µM, respectively.
For `Cc1ncoc1-c1nnc(SCCCN2CCOC(c3ccc(F)cc3)C2)n1C` (stereo not drawn) [Example 1], in experiment [1], the Ki is > 10 µM. Also, the “D3 p Ki” value in experiment [2] is 6.37.
On the same counts, the results for `Cc1ncoc1-c1nnc(SCCCCN2CCOC(c3ccc(C(F)(F)F)cc3)C2)n1C` (stereo not drawn) [Example 4, 4-(4-{[4-methyl-5-(4-methyl-1,3-oxazol-5-yl)-4H-1,2,4-triazol-3-yl]sulfanyl}butyl)-2-[4-(trifluoromethyl)phenyl]morpholine] are > 10 µM and 7.05.
With `CC(=O)c1ccc(-c2nnc(SCCCN3CCOC(c4ccc(C(F)(F)F)cc4)C3)n2C)cc1` (stereo not drawn) [Example 32, 1-(4-{4-methyl-5-[(3-{2-[4-(trifluoromethyl)phenyl]morpholine-4-yl}propyl)sulfanyl]-4H-1,2,4-triazol-3-yl}phenyl)ethan-1-one], the “D2 p Ki” value in experiment [3] is 4.65. For the same compound, in experiment [2], the “D3 p Ki” value is 7.18.
`Cn1c(SCCCN2CCOC(c3ccc(C(F)(F)F)cc3)C2)nnc1-c1ccc(S(N)(=O)=O)cc1` (stereo not drawn) [Example 33, 4-{4-methyl-5-[(3-{2-[4-(trifluoromethyl)phenyl]morpholine-4-yl}propyl)sulfanyl]-4H-1,2,4-triazol-3-yl}benzene-1-sulfonamide]: the “D2 p Ki” value in experiment [3] was <4.5. Also, the “D3 p Ki” value in experiment [2] is recorded as 6.87.
On the same counts, the results for `Cc1ncoc1-c1nnc(SCCCN2CCOC(c3ccc(C(F)(F)F)cc3F)C2)n1C` (stereo not drawn) [Example 34] are 4.96 and 6.71.
Take `Cc1ccc(C2CN(CCCSc3nnc(-c4ccc(-c5noc(C)n5)cc4)n3C)CCO2)cc1` (stereo not drawn) [Example 37, 4-[3-({4-methyl-5-[4-(5-methyl-1,2,4-oxadiazol-3-yl)phenyl]-4H-1,2,4-triazol-3-yl}sulfanyl)propyl]-2-(4-methylphenyl)morpholine]: the “D2 p Ki” value in experiment [3] worked out at 4.50. The Ki in experiment [1] was 31.6 µM. Moreover, the “D3 p Ki” value in experiment [2] is on record as 7.07.
